Data set [1] deals with Pyrenophora teres. The data set can be described thus: Example M: in vivo preventive test on Pyrenophora teres (barley). As to conditions: table M, 500 ppm, evaluated 8 days after inoculation. On the procedure: (§1) Example M: In Vivo Preventive Test on Pyrenophora teres (Barley) [table] To produce a suitable preparation of active compound, 1 part by weight of active compound or active compound combination is mixed with the stated amounts of solvent and emulsifier, and the concentrate is diluted with water to the desired concentration. To test for preventive activity, young plants are sprayed with the preparation of active compound or active compound combination at the stated rate of application. After the spray coating has been dried, the plants are sprayed with a spore suspension of Pyrenophora teres. The plants remain for 48 hours in an incubation cabinet at approximately 20° C. and a relative atmospheric humidity of approximately 100%. The plants are placed in the greenhouse at a temperature of approximately 20° C. and a relative atmospheric humidity of approximately 80%.

Data set [2] relates to Leptosphaeria nodorum. Put plainly: Example J: in vivo preventive test on Leptosphaeria nodorum (wheat). As to conditions: table J, 500 ppm, evaluated 8 days after inoculation. On the procedure:
as §1, with “Example J: In Vivo” for “Example M: In Vivo”, “Test on Leptosphaeria nodorum Test (Wheat) [table] To” for “Test on Pyrenophora teres (Barley) [table] To”, “suspension of Leptosphaeria nodorum. The plants” for “suspension of Pyrenophora teres. The plants”, “of approximately 22° C. and” for “of approximately 20° C. and”

Data set [3] relates to Botrytis cinerea. The data set can be described thus: Example H: in vivo preventive test on Botrytis cinerea (beans). The following applies: table H, 100 ppm, lesion size 2 days after inoculation. On the procedure:
Example H: In Vivo Preventive Test on Botrytis cinerea (Beans)
To produce a suitable preparation of active compound, 1 part by weight of active compound is mixed with the stated amounts of solvent and emulsifier, and the concentrate is diluted with water to the desired concentration.
To test for preventive activity, young plants are sprayed with the preparation of active compound. After the spray coating has dried on, 2 small pieces of agar covered with growth of Botrytis cinerea are placed on each leaf. The inoculated plants are placed in a darkened chamber at 20° C. and a relative atmospheric humidity of 100%.
2 days after the inoculation, the size of the lesions on the leaves is evaluated. 0% means an efficacy which corresponds to that of the untreated control, while an efficacy of 100% means that no disease is observed.

Data set [4] concerns Sphaerotheca fuliginea. The data set can be described thus: Example B: in vivo preventive test on Sphaerotheca fuliginea (powdery mildew on cucurbits). The following applies: table B; 500 ppm; gherkin plants; grading 12 days after contamination. A digest of the protocol: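 Gherkin plants (Vert petit de Paris) sprayed with compound at the Z11 cotyledon stage, then inoculated 24 h later with Sphaerotheca fuliginea spores (100 000 spores per mL). Kept at about 20° C., 70-80% relative humidity; % efficacy versus solvent-treated controls graded 12 days after inoculation.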

The subject of data set [5] is Venturia inaequalis. The data set can be described thus: Example E: in vivo preventive test on Venturia inaequalis (apples). The following applies: table E, 100 ppm, evaluated 10 days after inoculation. Here is the method:
Example E: In Vivo Preventive Test on Venturia inaequalis (Apples) [table] To produce a suitable preparation of active compound, 1 part by weight of active compound is mixed with the stated amounts of solvent and emulsifier, and the concentrate is diluted with water to the desired concentration. To test for preventive activity, young plants are sprayed with the preparation of active compound at the stated rate of application. After the spray coating has dried on, the plants are inoculated with an aqueous conidia suspension of the causal agent of apple scab (Venturia inaequalis) and then remain for 1 day in an incubation cabinet at approximately 20° C. and a relative atmospheric humidity of 100%. The plants are then placed in a greenhouse at approximately 21° C. and a relative atmospheric humidity of approximately 90%.

Data set [6] has as its system Alternaria solani. The data set can be described thus: Example C: in vivo preventive test on Alternaria solani (tomato). Here is the method: Example C: In Vivo Preventive Test on Alternaria solani (Tomato) [table] To produce a suitable preparation of active compound, 1 part by weight of active compound is mixed with the stated amounts of solvent and emulsifier, and the concentrate is diluted with water to the desired concentration. To test for preventive activity, young plants are sprayed with the preparation of active compound at the stated rate of application. One day after this treatment, the plants are inoculated with an aqueous spore suspension of Alternaria solani. The plants remain for one day in an incubation cabinet at approximately 22° C. and a relative atmospheric humidity of 100%. Then the plants are placed in an incubation cabinet at approximately 20° C. and a relative atmospheric humidity of 96%.

For data set [7], the system named is Fusarium nivale (var. majus). Put plainly: Example P: in vivo preventive test on Fusarium nivale (wheat). As to conditions: table P, 500 ppm, evaluated 5 days after inoculation. Here is the method:
Example P: In Vivo Preventive Test on Fusarium nivale (Wheat) [table] To produce a suitable preparation of active compound, 1 part by weight of active compound or active compound combination is mixed with the stated amounts of solvent and emulsifier, and the concentrate is diluted with water to the desired concentration. To test for preventive activity, young plants are sprayed with the preparation of active compound or active compound combination at the stated rate of application. After the spray coating has been dried, the plants are slightly injured by using a sandblast and afterwards they are sprayed with a conidia suspension of Fusarium nivale (var. majus). The plants are placed in the greenhouse under a translucent incubation cabinet at a temperature of approximately 10° C. and a relative atmospheric humidity of approximately 100%.

Data set [8] in a line: log P by HPLC on reversed-phase column (EEC Directive 79/831 Annex V.A8). The format is physicochemical. As to conditions: Table 1; HPLC C18, 40° C., 0.1% aqueous formic acid and acetonitrile gradient. In outline:
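Retention times were converted to log P by linear interpolation between two successive unbranched alkan-2-ones (3 to 16 carbon atoms) of known log P used for calibration. Elution ran at 40° C with a linear gradient from 10% to 90% acetonitrile against 0.1% aqueous formic acid.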

Where [9] appears, read: table C1, 100 ppm, evaluated 7 days after inoculation.

Each structure is given as a SMILES string.

As to `CC(C1CCCc2ccccc21)N(C(=O)c1c(C(F)F)nn(C)c1F)C1CC1` (stereo not drawn) [I.23], the Efficacy in data set [1] is reported as 100%; in data set [2] it was 100%; in data set [3], 99%; in data set [4] it was 100%; in data set [5], 100%; in data set [6] (setting [9]), 90%. In addition, the Efficacy in data set [6] (table C2, dose 100 ppm, comparison with WO-2010/086311 compound) is given as 90%; in data set [6] (table C2, dose 100 ppm, comparison with WO-2010/086311 compound, listed as 1.23), “at least 90%”; in data set [7], 100%. The compound further returned a logP in data set [8] of 4.08.
For `Cn1nc(C(F)F)c(C(=O)N(CC2CC(C)(C)Oc3ccccc32)C2CC2)c1F` (stereo not drawn) [I.33], the Efficacy in data set [1] came to 100%; in data set [2] it was 100%; in data set [3] it was 96%; in data set [4], 100%; in data set [5] it was 97%; in data set [6] (setting [9]), 100%. Also, the Efficacy in data set [7] was 100%. This compound also registered a logP in data set [8] of 3.53.

By logP is commonly meant a log measure of how a compound divides between an organic and an aqueous phase. A low value points to a more hydrophilic compound.
